PubChem BioAssay (NCI)
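These data come from cells grown in 96-well plates and exposed to compound for 48 hours at five concentrations. Definition used: TGI = concentration required for complete inhibition of growth.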

Key:
Assay in all cases: DTP human tumour cell line panel, 48 h
[1] = tested on: SK-MEL-2 melanoma
[2] = tested on: SNB-78 CNS
[3] = tested on: SW-620 colon
[4] = tested on: HT29 colon
[5] = tested on: UACC-257 melanoma
[6] = tested on: EKVX NSCLC
[7] = tested on: LXFL 529 NSCLC
[8] = tested on: UACC-62 melanoma
[9] = tested on: OVCAR-5 ovarian
[10] = tested on: RXF 393 renal
[11] = tested on: DMS 114 small cell lung
[12] = tested on: LOX IMVI melanoma
[13] = tested on: HOP-92 NSCLC
[14] = tested on: KM20L2 colon
[15] = tested on: OVCAR-3 ovarian
[16] = tested on: DMS 273 small cell lung
[17] = tested on: NCI-H460 lung
[18] = tested on: SF-268 CNS
[19] = tested on: CCRF-CEM leukemia
[20] = tested on: UO-31 renal
[21] = tested on: HOP-18 NSCLC
[22] = tested on: OVCAR-8 ovarian
[23] = tested on: M14 melanoma
[24] = tested on: K-562 leukemia
[25] = tested on: M19-MEL melanoma
[26] = tested on: MOLT-4 leukemia
[27] = tested on: KM12 colon
[28] = tested on: A549 NSCLC
[29] = tested on: SN12C renal
[30] = tested on: ACHN renal
[31] = tested on: TK-10 renal
[32] = tested on: NCI-H226 lung
[33] = tested on: COLO 205 colon
[34] = tested on: RPMI-8226 leukemia
[35] = tested on: HCC-2998 colon
[36] = tested on: HCT-15 colon
[37] = tested on: HCT-116 colon
[38] = tested on: SK-MEL-5 melanoma
[39] = tested on: U251 CNS
[40] = tested on: SNB-19 CNS
[41] = tested on: IGROV1 ovarian
[42] = tested on: SF-539 CNS
[43] = tested on: SR leukemia
[44] = tested on: SNB-75 CNS
[45] = tested on: SK-MEL-28 melanoma
[46] = tested on: HOP-62 NSCLC
[47] = tested on: OVCAR-4 ovarian
[48] = tested on: HL-60(TB) leukemia
[49] = tested on: NCI-H23 lung

Cc1cc(=O)[nH]c(NN2C(Cl)C(=O)C2c2c(O)ccc3ccccc23)n1 (centres undefined)
TGI [1]: 30.2 µM | TGI [2]: 70.4 µM | TGI [3]: > 100 µM | TGI [4]: 74 µM | TGI [5]: > 100 µM | TGI [6]: > 100 µM | TGI [7]: 30.3 µM | TGI [8]: 47.4 µM | TGI [9]: > 100 µM | TGI [10]: 26.6 µM | TGI [11]: 56 µM | TGI [12]: 32.7 µM | TGI [13]: 34.5 µM | TGI [14]: 66.8 µM | TGI [15]: 64.9 µM | TGI [16]: 33.1 µM | TGI [17]: 29.6 µM | TGI [18]: > 100 µM | TGI [19]: > 100 µM | TGI [20]: > 100 µM | TGI [21]: 53.5 µM | TGI [22]: > 100 µM | TGI [23]: 29 µM | TGI [24]: > 100 µM | TGI [25]: > 100 µM | TGI [26]: 64.1 µM | TGI [27]: 61.5 µM | TGI [28]: > 100 µM | TGI [29]: 69.5 µM | TGI [30]: > 100 µM | TGI [31]: > 100 µM | TGI [32]: 45.6 µM | TGI [33]: 58.2 µM | TGI [34]: 53.5 µM | TGI [35]: 32.6 µM | TGI [36]: 36.9 µM | TGI [37]: 48.8 µM | TGI [38]: 29.9 µM | TGI [39]: 63.1 µM | TGI [40]: 77.6 µM | TGI [41]: > 100 µM | TGI [42]: 41.1 µM | TGI [43]: 72.7 µM | TGI [44]: 39.2 µM | TGI [45]: 44.1 µM | TGI [46]: 77 µM | TGI [47]: 51.7 µM | TGI [48]: 49.3 µM | TGI [49]: 39.7 µM
